In US10632110B2, “Pharmaceutical composition for preventing or treating cancer and method using thereof” (MEDPACTO INC., priority 2016, dated 2020):
Marks after values point to notes of the source that are not given here.

Columns and labels:
Assay type in all cases: in vivo, C57BL/6 mice
[1] = tested on: B16F10 melanoma cell line; test: Test of tumor inhibitory effects of drug in mouse model; set-up: tumor inhibition rate (vs. vehicle, human IgG or hamster IgG administered group): concentration or dose not given beside the values; settings: for Tumor volume change (Δt = Vt − V0): TEW-7197 25 mg/kg oral, antibody about 100 μg per mouse
Description: (§1) In order to validate in vivo anti-tumor effects, female 5 week-old SPF C57BL/6 mice were purchased from Koatech Co. (South Korea). These mice were maintained in a room controlled at a temperature of about 22° C. while freely supplying food and water to them. 1 week after, 5×10^4 cells of B16F10 melanoma cell line (ATCC, CRL-6475™) were injected to these 6 week-old mice by subcutaneous injection. 8 week-old mice, 2 weeks after the injection of melanoma cell line, were used in the experiment.
(§2) As a carrier, 7 ml of 37% (v/v) […], 2.0 g of NaCl, 3.2 g of pepsin (Sigma-Aldrich), and distilled water were mixed together to prepare 1,000 ml of artificial gastric fluid. As an administration drug, N-((4-([1,2,4]triazolo[1,5-a]pyridin-6-yl)-5-(6-methylpyridin-2-yl)-1H-imidazol-2-yl)methyl)-2-fluoroaniline (hereinafter, referred to as “TEW-7197”) (Syngene, India) was dissolved in the carrier to prepare 2.5 mg/ml of TEW-7197 solution.
(§3) As for another administration drug, anti-PD-L1 monoclonal antibody (prepared by requesting to ANR therapeutics co., Ltd., host cell: HEK293F), anti-PD1 monoclonal hamster antibody (BioXCell, Cat. No. BE0033-2), anti-CTLA4 monoclonal hamster antibody (BioXCell, Cat. No. BE0131), human immunoglobulin G (IgG) (Thermo Scientific, Cat. No. 31154), and monoclonal hamster IgG (BioXCell, Cat. No. BE0091) were prepared.
(§4) The mouse models prepared in 1. were orally administered with 2.5 mg/ml of a TEW-7197 solution at a dose of 25 mg/weight kg once a day for 5 consecutive days of a week. Then, during the last 2 days, the TEW-7197 solution was not administered to them. These mice were administered with antibody at a dose of about 100 μg per mouse once every 2 days by abdominal injection. As for a control group for TEW-7197, a carrier administered group was used. As for a control group for antibody, a human IgG administered group and a hamster IgG administered group were used.
As described in 2., drug administration was carried out, and then 20 minutes after the last dose of the drug, mice were sacrificed, tumors were resected from the mice. Tumor volume was measured with calipers and calculated using Equation 1: Tumor volume (mm^3)=[length (mm)×width (mm)×height (mm)]/2 [Equation 1]
The difference between the initial tumor volume (V0) in the start date and the tumor volume after drug administration (Vt) was calculated, to calculate the change in tumor volume (Δt=Vt−V0). From the calculated tumor volume, the tumor inhibition rate (%) by drug administration was calculated.

[2] = Measurement of weight caused by administration drug in melanoma mouse model
Description: as §1, §2, §3, §4
From the day that the drugs were administered (start date) to the 11th day, the weights of mice were measured every 2 days.

[3] = tested on: B16F10 melanoma cell line; test: Test of synergistic combination of drugs in mouse model; settings: 11 days after drug administration, TEW-7197 10 mg/kg oral, antibody about 100 μg per mouse
Description: In detail, as described in 1., C57BL/6 mice were prepared, and 1×10^4 cells of B16F10 melanoma cell line (ATCC, CRL-6475™) were injected to each of the mice. When the average tumor size of each group reached about 26.0 mm^3, drug administration was carried out.
As described in 1., TEW-7197, anti-CTLA4 antibody, anti-PD-L1 antibody, anti-PD1 antibody, human IgG, and hamster IgG were prepared as drugs.
The prepared mice were orally administered with a TEW-7197 solution at a dose of 10 mg/weight kg once a day for 5 consecutive days of a week. Then, during the last 2 days, the TEW-7197 solution was not administered. These mice were administered with antibody at a dose of about 100 μg per mouse once every 2 days by abdominal injection. In a negative control group, a vehicle was administered for TEW-7197, and human IgG or hamster IgG was administered for antibody. 11 days after the drug administration, tumor volume was measured with calipers and calculated as described in 3.

Question: Which “tumor inhibition rate (vs. vehicle, human IgG or hamster IgG administered group)” value ([1]; 2 days after administration) does the source give for `Cc1cccc(-c2[nH]c(CNc3ccccc3F)nc2-c2ccc3ncnn3c2)n1` [TEW-7197, N-((4-([1,2,4]triazolo[1,5-a]pyridin-6-yl)-5-(6-methylpyridin-2-yl)-1H-imidazol-2-yl)methyl)-2-fluoroaniline] here?
Answer: The value was 21.3%.

Question: And the “Tumor volume change (Δt = Vt − V0)” value ([1]; 2 days after administration)?
Answer: Its value is 30.4 ± 6.6 mm^3.

Question: And the “tumor inhibition rate (vs. vehicle, human IgG or hamster IgG administered group)” value ([1]; 4 days after administration)?
Answer: Its value is 21.7%.

Question: And the “Tumor volume change (Δt = Vt − V0)” value ([1]; 4 days after administration)?
Answer: Its value is 100.4 ± 11.4* mm^3.

Question: What about the “tumor inhibition rate (vs. vehicle, human IgG or hamster IgG administered group)” value ([1]; 6 days after administration) of the same molecule?
Answer: Its value is 23.0%.

Question: What about the “Tumor volume change (Δt = Vt − V0)” value ([1]; 6 days after administration) of the same molecule?
Answer: Its value is 174.5 ± 29.6** mm^3.

Question: And the “tumor inhibition rate (vs. vehicle, human IgG or hamster IgG administered group)” value ([1]; 8 days after administration)?
Answer: The value was 22.9%.

Question: And the “Tumor volume change (Δt = Vt − V0)” value ([1]; 8 days after administration)?
Answer: Its value is 455.3 ± 67.1* mm^3.

Question: And the “tumor inhibition rate (vs. vehicle, human IgG or hamster IgG administered group)” value ([1]; 11 days after administration)?
Answer: Its value is 20.9%.

Question: And the “Tumor volume change (Δt = Vt − V0)” value ([1]; 11 days after administration)?
Answer: The value was 1084.0 ± 179.5* mm^3.

Question: What about the “Tumor volume change (Δt = Vt − V0)” value ([1]; Start date) of the same molecule?
Answer: Its value is 0.0 ± 0.0 mm^3.

Question: What about the “weight change of mice (average (%) ± standard deviation)” value ([2]; 2 days after administration, TEW-7197 25 mg/kg oral, antibody about 100 μg per mouse) of the same molecule?
Answer: The value was 104.3 ± 1.2%.

Question: What about the “weight change of mice (average (%) ± standard deviation)” value ([2]; 4 days after administration, TEW-7197 25 mg/kg oral, antibody about 100 μg per mouse) of the same molecule?
Answer: The value was 106.7 ± 3.5%.

Question: What about the “weight change of mice (average (%) ± standard deviation)” value ([2]; 6 days after administration, TEW-7197 25 mg/kg oral, antibody about 100 μg per mouse) of the same molecule?
Answer: Its value is 108.7 ± 4.5%.

Question: What about the “weight change of mice (average (%) ± standard deviation)” value ([2]; 8 days after administration, TEW-7197 25 mg/kg oral, antibody about 100 μg per mouse) of the same molecule?
Answer: The value was 115.8 ± 6.4%.

Question: What about the “weight change of mice (average (%) ± standard deviation)” value ([2]; 11 days after administration, TEW-7197 25 mg/kg oral, antibody about 100 μg per mouse) of the same molecule?
Answer: The value was 125.0 ± 6.5%.

Question: And the “weight change of mice (average (%) ± standard deviation)” value ([2]; Start date, TEW-7197 25 mg/kg oral once a day 5 days a week, antibody about 100 μg per mouse every 2 days abdominal injection)?
Answer: Its value is 100.0 ± 0.0%.

Question: And the “weight change caused by drug (in words)” value ([2]; up to 11th day, Table 2)?
Answer: Its value is “barely had significant weight change”.

Question: And the “tumor volume decrease as compared with the negative control group” value (“tumor volume decrease” below) ([3]; FIG. 1A (anti-CTLA4 series))?
Answer: Its value is “about 10.1%”.

Question: And the “tumor volume decrease” value ([3]; FIG. 1B (anti-PD-L1 series))?
Answer: The value was “about 9.2%”.

Question: And the “tumor volume decrease” value ([3]; FIG. 1C (anti-PD1 series))?
Answer: The value was “about 8.1%”.
